# From PubChem BioAssay (NCI)
#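 How tested: cells in 96-well plates exposed to compound for 48 hours at five concentrations. TGI: total growth inhibition.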 Where a SMILES comes first, the peptide text is derived from it.
# Columns and labels:
# Test in all cases: inhibition of tumour cell growth, NCI panel, 48 h
# 786-0 renal = tested on: 786-0 renal
# A549 NSCLC = tested on: A549 NSCLC
# ACHN renal = tested on: ACHN renal
# CAKI-1 renal = tested on: CAKI-1 renal
# CCRF-CEM leukemia = tested on: CCRF-CEM leukemia
# COLO 205 colon = tested on: COLO 205 colon
# DLD-1 colon = tested on: DLD-1 colon
# DMS 114 small cell lung = tested on: DMS 114 small cell lung
# DMS 273 small cell lung = tested on: DMS 273 small cell lung
# EKVX NSCLC = tested on: EKVX NSCLC
# HCC-2998 colon = tested on: HCC-2998 colon
# HCT-116 colon = tested on: HCT-116 colon
# HOP-62 NSCLC = tested on: HOP-62 NSCLC
# HOP-92 NSCLC = tested on: HOP-92 NSCLC
# HT29 colon = tested on: HT29 colon
# IGROV1 ovarian = tested on: IGROV1 ovarian
# K-562 leukemia = tested on: K-562 leukemia
# KM12 colon = tested on: KM12 colon
# KM20L2 colon = tested on: KM20L2 colon
# LOX IMVI melanoma = tested on: LOX IMVI melanoma
# LXFL 529 NSCLC = tested on: LXFL 529 NSCLC
# M14 melanoma = tested on: M14 melanoma
# M19-MEL melanoma = tested on: M19-MEL melanoma
# MALME-3M melanoma = tested on: MALME-3M melanoma
# MOLT-4 leukemia = tested on: MOLT-4 leukemia
# NCI-H226 lung = tested on: NCI-H226 lung
# NCI-H23 lung = tested on: NCI-H23 lung
# NCI-H460 lung = tested on: NCI-H460 lung
# NCI-H522 lung = tested on: NCI-H522 lung
# OVCAR-3 ovarian = tested on: OVCAR-3 ovarian
# OVCAR-4 ovarian = tested on: OVCAR-4 ovarian
# OVCAR-5 ovarian = tested on: OVCAR-5 ovarian
# OVCAR-8 ovarian = tested on: OVCAR-8 ovarian
# RXF 393 renal = tested on: RXF 393 renal
# SF-268 CNS = tested on: SF-268 CNS
# SF-295 CNS = tested on: SF-295 CNS
# SF-539 CNS = tested on: SF-539 CNS
# SK-MEL-2 melanoma = tested on: SK-MEL-2 melanoma
# SK-MEL-28 melanoma = tested on: SK-MEL-28 melanoma
# SK-MEL-5 melanoma = tested on: SK-MEL-5 melanoma
# SK-OV-3 ovarian = tested on: SK-OV-3 ovarian
# SN12C renal = tested on: SN12C renal
# SNB-19 CNS = tested on: SNB-19 CNS
# SNB-75 CNS = tested on: SNB-75 CNS
# SNB-78 CNS = tested on: SNB-78 CNS
# SR leukemia = tested on: SR leukemia
# SW-620 colon = tested on: SW-620 colon
# TK-10 renal = tested on: TK-10 renal
# U251 CNS = tested on: U251 CNS
# UACC-62 melanoma = tested on: UACC-62 melanoma
# UO-31 renal = tested on: UO-31 renal
# XF 498 CNS = tested on: XF 498 CNS
# HCT-15 colon = tested on: HCT-15 colon
# HL-60(TB) leukemia = tested on: HL-60(TB) leukemia
# HOP-18 NSCLC = tested on: HOP-18 NSCLC
# RPMI-8226 leukemia = tested on: RPMI-8226 leukemia
# UACC-257 melanoma = tested on: UACC-257 melanoma
# A498 renal = tested on: A498 renal
# RXF-631 renal = tested on: RXF-631 renal
smiles,measurement,setting,value
COc1ccc(/C=c2/sc3n(c2=O)NC2(CCC(C)CC2)NN=3)cc1 (stereo not drawn),TGI,786-0 renal,> 100 µM
same,TGI,A549 NSCLC,> 100 µM
same,TGI,ACHN renal,> 100 µM
same,TGI,CAKI-1 renal,> 100 µM
same,TGI,CCRF-CEM leukemia,> 100 µM
same,TGI,COLO 205 colon,> 100 µM
same,TGI,DLD-1 colon,> 100 µM
same,TGI,DMS 114 small cell lung,> 100 µM
same,TGI,DMS 273 small cell lung,> 100 µM
same,TGI,EKVX NSCLC,> 100 µM
same,TGI,HCC-2998 colon,> 100 µM
same,TGI,HCT-116 colon,> 100 µM
same,TGI,HOP-62 NSCLC,> 100 µM
same,TGI,HOP-92 NSCLC,> 100 µM
same,TGI,HT29 colon,> 100 µM
same,TGI,IGROV1 ovarian,> 100 µM
same,TGI,K-562 leukemia,> 100 µM
same,TGI,KM12 colon,> 100 µM
same,TGI,KM20L2 colon,> 100 µM
same,TGI,LOX IMVI melanoma,> 100 µM
same,TGI,LXFL 529 NSCLC,> 100 µM
same,TGI,M14 melanoma,> 100 µM
same,TGI,M19-MEL melanoma,> 100 µM
same,TGI,MALME-3M melanoma,> 100 µM
same,TGI,MOLT-4 leukemia,> 100 µM
same,TGI,NCI-H226 lung,> 100 µM
same,TGI,NCI-H23 lung,> 100 µM
same,TGI,NCI-H460 lung,> 100 µM
same,TGI,NCI-H522 lung,> 100 µM
same,TGI,OVCAR-3 ovarian,> 100 µM
same,TGI,OVCAR-4 ovarian,> 100 µM
same,TGI,OVCAR-5 ovarian,> 100 µM
same,TGI,OVCAR-8 ovarian,> 100 µM
same,TGI,RXF 393 renal,> 100 µM
same,TGI,SF-268 CNS,> 100 µM
same,TGI,SF-295 CNS,> 100 µM
same,TGI,SF-539 CNS,> 100 µM
same,TGI,SK-MEL-2 melanoma,> 100 µM
same,TGI,SK-MEL-28 melanoma,> 100 µM
same,TGI,SK-MEL-5 melanoma,> 100 µM
same,TGI,SK-OV-3 ovarian,> 100 µM
same,TGI,SN12C renal,> 100 µM
same,TGI,SNB-19 CNS,> 100 µM
same,TGI,SNB-75 CNS,> 100 µM
same,TGI,SNB-78 CNS,> 100 µM
same,TGI,SR leukemia,> 100 µM
same,TGI,SW-620 colon,> 100 µM
same,TGI,TK-10 renal,> 100 µM
same,TGI,U251 CNS,> 100 µM
same,TGI,UACC-62 melanoma,> 100 µM
same,TGI,UO-31 renal,> 100 µM
same,TGI,XF 498 CNS,> 100 µM
Cc1cc(=O)[nH]c(NNC(C#N)c2c(O)ccc3ccccc23)n1 (stereo not drawn),TGI,786-0 renal,79.8 µM
same,TGI,A549 NSCLC,18.5 µM
same,TGI,ACHN renal,13 µM
same,TGI,CAKI-1 renal,22 µM
same,TGI,CCRF-CEM leukemia,> 100 µM
same,TGI,COLO 205 colon,57 µM
same,TGI,DLD-1 colon,24.7 µM
same,TGI,DMS 114 small cell lung,5.81 µM
same,TGI,DMS 273 small cell lung,18.7 µM
same,TGI,HCT-116 colon,17.1 µM
same,TGI,HCT-15 colon,18.8 µM
same,TGI,HL-60(TB) leukemia,8.27 µM
same,TGI,HOP-18 NSCLC,> 100 µM
same,TGI,HOP-62 NSCLC,73.8 µM
same,TGI,HOP-92 NSCLC,79.6 µM
same,TGI,HT29 colon,88.4 µM
same,TGI,IGROV1 ovarian,23.4 µM
same,TGI,K-562 leukemia,> 100 µM
same,TGI,KM12 colon,17.3 µM
same,TGI,KM20L2 colon,95.7 µM
same,TGI,LOX IMVI melanoma,22.4 µM
same,TGI,LXFL 529 NSCLC,47 µM
same,TGI,M14 melanoma,15.6 µM
same,TGI,M19-MEL melanoma,25 µM
same,TGI,MALME-3M melanoma,26.8 µM
same,TGI,MOLT-4 leukemia,48.6 µM
same,TGI,NCI-H226 lung,17.6 µM
same,TGI,NCI-H23 lung,20.5 µM
same,TGI,NCI-H460 lung,17.2 µM
same,TGI,NCI-H522 lung,23.7 µM
same,TGI,OVCAR-3 ovarian,43.1 µM
same,TGI,OVCAR-4 ovarian,31.1 µM
same,TGI,OVCAR-5 ovarian,82.7 µM
same,TGI,OVCAR-8 ovarian,68.2 µM
same,TGI,RPMI-8226 leukemia,46.5 µM
same,TGI,RXF 393 renal,23.6 µM
same,TGI,SF-268 CNS,40.7 µM
same,TGI,SF-295 CNS,> 100 µM
same,TGI,SF-539 CNS,13.7 µM
same,TGI,SK-MEL-2 melanoma,27.8 µM
same,TGI,SK-MEL-28 melanoma,68.3 µM
same,TGI,SK-MEL-5 melanoma,13 µM
same,TGI,SK-OV-3 ovarian,52.6 µM
same,TGI,SN12C renal,38.2 µM
same,TGI,SNB-75 CNS,55.9 µM
same,TGI,SNB-78 CNS,> 100 µM
same,TGI,SR leukemia,26.3 µM
same,TGI,SW-620 colon,29.9 µM
same,TGI,TK-10 renal,65.8 µM
same,TGI,U251 CNS,43.3 µM
same,TGI,UACC-257 melanoma,19.8 µM
same,TGI,UACC-62 melanoma,10.1 µM
same,TGI,UO-31 renal,9.92 µM
C#CC1(O)c2ccccc2C(=O)c2ccccc21,TGI,786-0 renal,> 100 µM
same,TGI,A498 renal,> 100 µM
same,TGI,A549 NSCLC,> 100 µM
same,TGI,ACHN renal,> 100 µM
same,TGI,CAKI-1 renal,> 100 µM
same,TGI,CCRF-CEM leukemia,> 100 µM
same,TGI,COLO 205 colon,> 100 µM
same,TGI,DMS 273 small cell lung,> 100 µM
same,TGI,EKVX NSCLC,> 100 µM
same,TGI,HCC-2998 colon,> 100 µM
same,TGI,HCT-116 colon,> 100 µM
same,TGI,HL-60(TB) leukemia,> 100 µM
same,TGI,HOP-18 NSCLC,> 100 µM
same,TGI,HOP-62 NSCLC,> 100 µM
same,TGI,HOP-92 NSCLC,99.6 µM
same,TGI,HT29 colon,> 100 µM
same,TGI,IGROV1 ovarian,> 100 µM
same,TGI,K-562 leukemia,> 100 µM
same,TGI,KM12 colon,> 100 µM
same,TGI,KM20L2 colon,> 100 µM
same,TGI,LOX IMVI melanoma,> 100 µM
same,TGI,LXFL 529 NSCLC,> 100 µM
same,TGI,M19-MEL melanoma,> 100 µM
same,TGI,MALME-3M melanoma,> 100 µM
same,TGI,MOLT-4 leukemia,> 100 µM
same,TGI,NCI-H226 lung,> 100 µM
same,TGI,NCI-H23 lung,> 100 µM
same,TGI,NCI-H460 lung,> 100 µM
same,TGI,NCI-H522 lung,> 100 µM
same,TGI,OVCAR-4 ovarian,> 100 µM
same,TGI,OVCAR-5 ovarian,> 100 µM
same,TGI,OVCAR-8 ovarian,> 100 µM
same,TGI,RXF 393 renal,> 100 µM
same,TGI,SF-268 CNS,> 100 µM
same,TGI,SF-295 CNS,> 100 µM
same,TGI,SF-539 CNS,> 100 µM
same,TGI,SK-MEL-2 melanoma,> 100 µM
same,TGI,SK-MEL-28 melanoma,> 100 µM
same,TGI,SN12C renal,> 100 µM
same,TGI,SNB-19 CNS,> 100 µM
same,TGI,SNB-78 CNS,> 100 µM
same,TGI,SR leukemia,> 100 µM
same,TGI,SW-620 colon,> 100 µM
same,TGI,TK-10 renal,> 100 µM
same,TGI,U251 CNS,> 100 µM
same,TGI,UACC-257 melanoma,> 100 µM
same,TGI,XF 498 CNS,> 100 µM
CCC(C)C1NC(=O)C2CCCN2C(=O)CNC(=O)C(C)NC(=O)C(Cc2ccccc2)NC(=O)C(C(C)C)NC1=O (stereo not drawn) (cyclo(GPIVFA); configuration not given here),TGI,786-0 renal,> 100 µM
same,TGI,A498 renal,> 100 µM
same,TGI,A549 NSCLC,> 100 µM
same,TGI,ACHN renal,> 100 µM
same,TGI,CAKI-1 renal,> 100 µM
same,TGI,COLO 205 colon,> 100 µM
same,TGI,DLD-1 colon,> 100 µM
same,TGI,DMS 114 small cell lung,> 100 µM
same,TGI,EKVX NSCLC,> 100 µM
same,TGI,HCC-2998 colon,> 100 µM
same,TGI,HCT-116 colon,> 100 µM
same,TGI,HCT-15 colon,> 100 µM
same,TGI,HOP-18 NSCLC,> 100 µM
same,TGI,HOP-62 NSCLC,> 100 µM
same,TGI,HOP-92 NSCLC,> 100 µM
same,TGI,HT29 colon,> 100 µM
same,TGI,IGROV1 ovarian,> 100 µM
same,TGI,KM12 colon,> 100 µM
same,TGI,KM20L2 colon,> 100 µM
same,TGI,LOX IMVI melanoma,> 100 µM
same,TGI,LXFL 529 NSCLC,> 100 µM
same,TGI,M14 melanoma,> 100 µM
same,TGI,M19-MEL melanoma,> 100 µM
same,TGI,MALME-3M melanoma,> 100 µM
same,TGI,MOLT-4 leukemia,> 100 µM
same,TGI,NCI-H226 lung,> 100 µM
same,TGI,NCI-H23 lung,> 100 µM
same,TGI,NCI-H460 lung,> 100 µM
same,TGI,OVCAR-3 ovarian,> 100 µM
same,TGI,OVCAR-4 ovarian,> 100 µM
same,TGI,OVCAR-5 ovarian,> 100 µM
same,TGI,OVCAR-8 ovarian,> 100 µM
same,TGI,RPMI-8226 leukemia,> 100 µM
same,TGI,RXF 393 renal,> 100 µM
same,TGI,RXF-631 renal,> 100 µM
same,TGI,SF-268 CNS,> 100 µM
same,TGI,SF-295 CNS,> 100 µM
same,TGI,SF-539 CNS,> 100 µM
same,TGI,SK-MEL-28 melanoma,> 100 µM
same,TGI,SK-MEL-5 melanoma,> 100 µM
same,TGI,SK-OV-3 ovarian,> 100 µM
same,TGI,SN12C renal,> 100 µM
same,TGI,SNB-19 CNS,> 100 µM
same,TGI,SNB-75 CNS,> 100 µM
same,TGI,SR leukemia,> 100 µM
same,TGI,SW-620 colon,> 100 µM
same,TGI,TK-10 renal,> 100 µM
same,TGI,U251 CNS,> 100 µM
same,TGI,UACC-257 melanoma,> 100 µM
same,TGI,UACC-62 melanoma,> 100 µM
same,TGI,UO-31 renal,> 100 µM
